# Data reported in ChEMBL document CHEMBL1201862, “PubChem BioAssay data set” (2004).
# The source made the active and inactive calls. For most assays here, no stated cut-off is given here; in the data, actives have a measured EC50 and inactives only a lower limit.
# Experiments:
# [1] = molecular target: Voltage-gated N-type calcium channel alpha-1B subunit/Amyloid beta A4 precursor protein-binding family A member 1 (Homo sapiens, UniProt Q00975+Q02410); assay type: protein assay
# [2] = molecular target: T1, Serine/threonine-protein phosphatase (Candida dubliniensis (strain CD36 / CBS 7987 / NCPF 3949 / NRRLY-17841) (Yeast), UniProt B9W6M3); assay: blockers of CaCl2-induced CDRE-lacZ signaling – S. cerevisiae, luminescence, secondary, dose response (AID 2388); assay type: functional, cell-based;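 further: yeast reporter cells carrying a calcineurin-responsive lacZ construct stimulated with calcium chloride; luminescent beta-galactosidase reporter signal in whole cells rather than isolated phosphatase activity; potency for inhibition where a drop in reporter signal means calcineurin blockade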
# T1 sequence (B9W6M3 whole entry): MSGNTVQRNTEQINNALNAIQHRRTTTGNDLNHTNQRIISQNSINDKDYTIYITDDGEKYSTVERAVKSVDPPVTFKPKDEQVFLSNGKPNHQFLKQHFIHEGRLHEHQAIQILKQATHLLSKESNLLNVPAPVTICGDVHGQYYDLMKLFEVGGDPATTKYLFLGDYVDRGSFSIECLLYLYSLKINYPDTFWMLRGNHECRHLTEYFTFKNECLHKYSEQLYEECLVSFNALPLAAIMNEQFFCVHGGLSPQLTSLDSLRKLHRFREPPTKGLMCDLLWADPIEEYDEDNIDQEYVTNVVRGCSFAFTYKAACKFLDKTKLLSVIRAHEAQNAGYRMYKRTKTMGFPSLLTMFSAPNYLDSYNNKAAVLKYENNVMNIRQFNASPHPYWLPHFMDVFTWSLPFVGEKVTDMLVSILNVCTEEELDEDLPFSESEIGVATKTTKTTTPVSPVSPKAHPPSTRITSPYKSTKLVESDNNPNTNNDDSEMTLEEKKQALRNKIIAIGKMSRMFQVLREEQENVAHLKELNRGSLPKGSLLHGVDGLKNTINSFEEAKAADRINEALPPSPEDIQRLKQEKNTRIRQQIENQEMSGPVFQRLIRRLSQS
# cells = assay type: functional, cell-based
# Sequence of Voltage-gated N-type calcium channel alpha-1B subunit/Amyloid beta A4 precursor protein-binding family A member 1 (Q00975 whole entry): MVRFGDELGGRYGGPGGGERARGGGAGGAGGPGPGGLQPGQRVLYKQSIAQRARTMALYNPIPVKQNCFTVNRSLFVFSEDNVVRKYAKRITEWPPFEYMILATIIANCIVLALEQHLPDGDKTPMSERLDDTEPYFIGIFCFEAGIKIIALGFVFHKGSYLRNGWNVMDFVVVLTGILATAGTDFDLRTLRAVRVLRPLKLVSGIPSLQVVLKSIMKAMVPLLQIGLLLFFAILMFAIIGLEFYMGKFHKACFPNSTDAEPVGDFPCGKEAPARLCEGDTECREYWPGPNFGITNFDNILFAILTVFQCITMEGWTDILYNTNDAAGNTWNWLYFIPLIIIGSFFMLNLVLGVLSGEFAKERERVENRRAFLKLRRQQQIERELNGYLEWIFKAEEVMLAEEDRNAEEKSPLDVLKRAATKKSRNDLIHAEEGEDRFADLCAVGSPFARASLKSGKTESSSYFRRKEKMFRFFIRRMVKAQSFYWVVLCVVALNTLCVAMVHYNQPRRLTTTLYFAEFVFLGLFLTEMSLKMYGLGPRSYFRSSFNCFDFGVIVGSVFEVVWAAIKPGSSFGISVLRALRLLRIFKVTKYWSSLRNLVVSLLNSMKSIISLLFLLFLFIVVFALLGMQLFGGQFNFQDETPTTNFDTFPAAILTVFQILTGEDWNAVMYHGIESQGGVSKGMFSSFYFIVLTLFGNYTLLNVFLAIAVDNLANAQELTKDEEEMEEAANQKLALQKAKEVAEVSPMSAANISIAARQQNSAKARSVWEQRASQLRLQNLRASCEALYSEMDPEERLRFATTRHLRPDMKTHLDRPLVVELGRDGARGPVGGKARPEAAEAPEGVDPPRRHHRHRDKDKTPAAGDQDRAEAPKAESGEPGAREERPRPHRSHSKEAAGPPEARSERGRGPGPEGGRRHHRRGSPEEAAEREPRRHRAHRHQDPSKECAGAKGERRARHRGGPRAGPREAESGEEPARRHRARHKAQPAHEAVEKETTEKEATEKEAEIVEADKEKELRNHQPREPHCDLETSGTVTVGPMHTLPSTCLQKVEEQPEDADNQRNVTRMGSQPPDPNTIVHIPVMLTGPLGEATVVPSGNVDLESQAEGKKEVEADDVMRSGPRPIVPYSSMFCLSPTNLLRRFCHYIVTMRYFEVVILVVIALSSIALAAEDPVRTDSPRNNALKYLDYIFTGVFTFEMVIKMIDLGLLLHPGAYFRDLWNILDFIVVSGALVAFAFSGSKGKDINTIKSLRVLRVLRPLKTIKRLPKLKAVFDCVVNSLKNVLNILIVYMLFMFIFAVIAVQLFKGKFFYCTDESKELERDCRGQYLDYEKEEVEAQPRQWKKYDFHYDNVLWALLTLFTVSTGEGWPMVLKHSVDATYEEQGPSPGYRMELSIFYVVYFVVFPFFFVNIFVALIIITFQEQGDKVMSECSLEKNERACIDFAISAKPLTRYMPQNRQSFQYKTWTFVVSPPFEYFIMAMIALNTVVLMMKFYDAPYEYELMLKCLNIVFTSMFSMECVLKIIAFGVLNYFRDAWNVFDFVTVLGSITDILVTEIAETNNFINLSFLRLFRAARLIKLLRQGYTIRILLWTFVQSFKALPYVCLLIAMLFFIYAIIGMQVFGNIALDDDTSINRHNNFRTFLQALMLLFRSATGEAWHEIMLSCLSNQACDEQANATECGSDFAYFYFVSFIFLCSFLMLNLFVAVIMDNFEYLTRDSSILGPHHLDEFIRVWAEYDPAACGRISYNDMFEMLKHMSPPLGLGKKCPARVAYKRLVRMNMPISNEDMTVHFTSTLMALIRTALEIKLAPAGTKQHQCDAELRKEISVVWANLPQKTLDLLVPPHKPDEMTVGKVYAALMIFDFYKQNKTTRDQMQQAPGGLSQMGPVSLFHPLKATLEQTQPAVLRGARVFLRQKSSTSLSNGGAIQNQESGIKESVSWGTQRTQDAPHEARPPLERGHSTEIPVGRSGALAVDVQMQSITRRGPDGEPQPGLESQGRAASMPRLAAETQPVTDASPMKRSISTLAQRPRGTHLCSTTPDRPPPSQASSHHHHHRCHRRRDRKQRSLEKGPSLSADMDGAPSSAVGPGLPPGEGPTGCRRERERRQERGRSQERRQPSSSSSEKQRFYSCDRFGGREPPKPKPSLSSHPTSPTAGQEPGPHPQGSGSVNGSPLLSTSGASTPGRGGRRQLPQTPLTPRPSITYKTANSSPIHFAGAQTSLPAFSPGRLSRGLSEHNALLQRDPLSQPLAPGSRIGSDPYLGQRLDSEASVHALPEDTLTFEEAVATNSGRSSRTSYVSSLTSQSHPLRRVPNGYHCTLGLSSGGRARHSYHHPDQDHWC
# Sequence of Voltage-gated N-type calcium channel alpha-1B subunit/Amyloid beta A4 precursor protein-binding family A member 1 (Q02410 whole entry): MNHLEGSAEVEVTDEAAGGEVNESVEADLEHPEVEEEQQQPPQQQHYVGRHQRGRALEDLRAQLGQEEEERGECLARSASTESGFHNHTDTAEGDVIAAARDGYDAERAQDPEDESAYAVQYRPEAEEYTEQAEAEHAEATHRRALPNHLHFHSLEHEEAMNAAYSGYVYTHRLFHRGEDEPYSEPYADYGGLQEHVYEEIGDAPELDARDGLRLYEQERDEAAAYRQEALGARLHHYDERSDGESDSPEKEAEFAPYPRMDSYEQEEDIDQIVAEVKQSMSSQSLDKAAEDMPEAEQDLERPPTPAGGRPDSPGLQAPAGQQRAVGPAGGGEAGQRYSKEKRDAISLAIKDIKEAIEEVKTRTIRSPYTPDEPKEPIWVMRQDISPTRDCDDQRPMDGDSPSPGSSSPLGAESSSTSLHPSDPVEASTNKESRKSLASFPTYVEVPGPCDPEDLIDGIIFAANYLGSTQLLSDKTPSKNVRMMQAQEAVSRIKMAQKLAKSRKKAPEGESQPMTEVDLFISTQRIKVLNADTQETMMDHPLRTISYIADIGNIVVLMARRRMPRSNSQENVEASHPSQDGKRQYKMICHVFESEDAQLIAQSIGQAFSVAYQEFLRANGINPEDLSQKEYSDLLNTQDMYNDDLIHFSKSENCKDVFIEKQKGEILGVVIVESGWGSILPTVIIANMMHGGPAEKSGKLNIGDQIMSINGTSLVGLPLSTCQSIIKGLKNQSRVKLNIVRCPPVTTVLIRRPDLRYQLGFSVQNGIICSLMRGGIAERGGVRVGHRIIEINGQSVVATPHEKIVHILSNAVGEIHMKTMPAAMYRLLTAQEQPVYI
Compound,IC50 [1],EC50 [2],EC50 (cells)
COc1cc(-c2ccc(Nc3ccccc3C(=O)O)c(OC)c2)ccc1Nc1ccccc1C(=O)O,7.6 µM (active),,
CCCC(=O)NC(c1ccccc1OC)c1ccc2cccnc2c1O (stereo not drawn),,> 180 µM (inactive),7.86 µM (active)
